Results taken from ChEMBL document CHEMBL1131593, “Correlation of human jejunal permeability (in vivo) of drugs with experimentally and theoretically derived parameters. A multivariate data analysis approach” (J Med Chem, 1998).
“And” between values parts separate entries of the source, which are not always exact repeats. Equal entries are not always repeated.

Legend:
physchem [1] = details: octanol/water
[2] = Distribution coefficient in octanol/water at pH 6.5; assay type: physicochemical; details: read-out: Log D6.5
[3] = Distribution coefficient in octanol/water at pH 5.5; assay type: physicochemical; details: read-out: Log D5.5
[4] = Partition coefficient value and its ionic species.; assay type: ADME; details: octanol/water
[5] = pKa value of the compound. (extrapolated values); assay type: physicochemical
[6] = octanol/water
[7] = Distribution coefficient in octanol/water at pH 7.4; assay type: physicochemical; details: read-out: Log D7.4
physchem [8] = experiment: physchem
physchem [9] = details: octanol/water, pH 6.5
physchem [10] = details: octanol/water, pH 5.5
physchem [11] = details: octanol/water; remark: listed apart in the source
physchem [12] = details: octanol/water, pH 7.4
[13] = octanol/water; remark: listed apart in the source
physchem [14] = experiment: physchem; remark: listed apart in the source

| SMILES | logP (physchem [1]) | logD [2] | logD [3] | Log Pion [4] | GOF [6] | logD [7] | further results |
| --- | --- | --- | --- | --- | --- | --- | --- |
| C[C@H](N[C@@H](CCc1ccccc1)C(=O)O)C(=O)N1CCC[C@H]1C(=O)O [ENALAPRILAT ANHYDROUS] | -0.13 | -1 | -1 | -1.07 and -0.99 | 1.6 | -1 | pKa [5]: 7.84 |
| Cc1cc(=O)n(-c2ccccc2)n1C [ANTIPYRINE] |  |  |  |  | 1.2 |  | pKa (physchem [8]): 1.44 |
| CN1CC(=O)NC1=N [CREATININE] | < -2 | < -2 | < -2 |  | 0.5 | < -2 | pKa [5]: 4.85 |
| CC(C)NC[C@H](O)COc1ccc(CC(N)=O)cc1 [ATENOLOL] |  |  |  |  | 1.6 |  |  |
| COCCc1ccc(OC[C@@H](O)CNC(C)C)cc1 [(S)-METOPROLOL] | 2.07 | -0.5 | -0.6 | -0.63 | 0.9 | 0 |  |
| NS(=O)(=O)c1cc(C(=O)O)c(NCc2ccco2)cc1Cl [FUROSEMIDE] |  |  |  |  | 1.7 |  |  |
| CC(C)NC[C@H](O)COc1cccc2ccccc12.Cl [PROPRANOLOL HYDROCHLORIDE] |  |  |  |  | 0.9 |  |  |
| CC(C)n1c(/C=C/[C@@H](O)C[C@@H](O)CC(=O)O)c(-c2ccc(F)cc2)c2ccccc21 [FLUVASTATIN SODIUM] | 4.17 |  |  |  | 1.2 |  | logD (physchem [9]): 2; logD (physchem [10]): 3; logPion (physchem [11]): 1.12; pKa (physchem [8]): 4.31; logD (physchem [12]): 1.4 |
| CC1(C)S[C@@H]2[C@H](NC(=O)[C@H](N)c3ccc(O)cc3)C(=O)N2[C@H]1C(=O)O [AMOXICILLIN] |  |  |  |  | 3.1 |  | logD (physchem [9]): -1.7; logD (physchem [10]): -1.7; logP [13]: -1.71; pKa (physchem [8]): 9.61; logD (physchem [12]): -1.6 |
| CC(C)(C)NC[C@H](O)c1cc(O)cc(O)c1 [TERBUTALINE] | -0.09 | -1.3 | -1.3 |  | 3.3 | -1.1 | pKa (physchem [14]): 11.1 |
| C[C@](N)(Cc1ccc(O)c(O)c1)C(=O)O [METHYLDOPA] | < -2 | < -2 | < -2 | < -2 | 1.3 | < -2 | pKa (physchem [14]): 12.7 |
| CC(C)C[C@H](N)C(=O)O [LEUCINE] | -1.55 | -1.6 | -1.6 | -2.07 | 2.6 | -1.6 | pKa [5]: 9.61 |
| C[C@H](C(=O)O)c1cccc(C(=O)c2ccccc2)c1 [DEXKETOPROFEN] | 3.37 |  |  |  | 1.1 |  | logD (physchem [9]): 0.8; logD (physchem [10]): 1.8; logD (physchem [12]): 0.1 |
| NS(=O)(=O)c1cc2c(cc1Cl)NCNS2(=O)=O [HYDROCHLOROTHIAZIDE] | -0.17 |  |  |  | 1.6 |  |  |
| N[C@@H](Cc1ccc(O)c(O)c1)C(=O)O [LEVODOPA] | < -2 | < -2 | < -2 | < -2 | 1.4 | < -2 | pKa (physchem [14]): 12.7 |
